Source: patent publication US11459329B2, “Imidazopyridazine and imidazopyridine compounds and uses thereof” (Incyte Corporation, priority 2018, dated 2022)
pIC50: −log10 of the molar value. Where two headings read alike, the source gives them in different places.

Molecular target: ALK2 (aa 147-end) (Homo sapiens (Human), UniProt Q04771)
Assay: ALK2 HTRF Assay
Type: biochemical
Method: The enzymatic assays were conducted in white 384-well polystyrene plates in a final volume of 8 μL. The inhibitors were serially diluted in DMSO and added to the plate wells prior to addition of the other reaction components. The assays were carried out at 25° C. in the assay buffer (50 mM HEPES, pH 7.0, 10% Glycerol, 0.01% Brij50, 10 mM MgCl2, 1 mM EGTA, 5 mM DTT, and 0.01% BSA), containing 50 nM LANCE Ultra ULight™-DNA Topoisomerase 2-alpha peptide (Perkin Elmer TRF0130), and 3 μM ATP. The final concentration of DMSO in the assay was 1% and the enzyme concentration was 0.5 nM for ALK2. […] […] IC50 determination was performed by fitting percent control activity versus the log of the inhibitor concentration using the IDBS XLFit and GraphPad Prism 5.0 software.

[1] = 3 μM ATP, 0.5 nM ALK2, 2 hr, 25° C., read-out: ALK2 IC50

Chain of ALK2 (aa 147-end) (Q04771 147-509): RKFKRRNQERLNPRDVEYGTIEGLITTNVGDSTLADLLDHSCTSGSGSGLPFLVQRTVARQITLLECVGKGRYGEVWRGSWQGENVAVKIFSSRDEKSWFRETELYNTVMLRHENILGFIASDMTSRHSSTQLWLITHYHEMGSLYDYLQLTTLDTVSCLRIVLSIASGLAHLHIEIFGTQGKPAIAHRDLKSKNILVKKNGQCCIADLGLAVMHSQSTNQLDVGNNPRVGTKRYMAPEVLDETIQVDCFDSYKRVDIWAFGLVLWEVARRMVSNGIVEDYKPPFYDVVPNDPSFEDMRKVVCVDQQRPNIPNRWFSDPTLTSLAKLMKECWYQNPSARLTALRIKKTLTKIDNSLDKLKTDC

SMILES | pIC50 [1] | pIC50
Cc1nn2c(-c3ccnc4ccccc34)cnc2cc1-c1ccc(N2CCNCC2)cc1 [Example 1, 4-(6-Methyl-7-(4-(piperazin-1-yl)phenyl)imidazo[1,2-b]pyridazin-3-yl)quinoline] | > 9.00 | –
COC(=O)c1nn2c(-c3ccnc4ccccc34)cnc2cc1-c1ccc(N2CCNCC2)cc1 [Example 2, Methyl 7-(4-(piperazin-1-yl)phenyl)-3-(quinolin-4-yl)imidazo[1,2-b]pyridazine-6-carboxylate] | > 9.00 | –
C[C@]1(O)CC[C@H](NC(=O)c2nn3c(-c4ccnc5ccccc45)cnc3cc2-c2ccc(N3CCNCC3)cc2)CC1 [Example 3, N-((1R,4R)-4-Hydroxy-4-methylcyclohexyl)-7-(4-(piperazin-1-yl)phenyl)-3-(quinolin-4-yl)imidazo[1,2-b]pyridazine-6-carboxamide] | 7.00 to 8.30 | –
CCOC(=O)N1CCN(C(=O)c2nn3c(-c4ccnc5ccccc45)cnc3cc2-c2ccc(N3CCNCC3)cc2)CC1 [Example 4, Ethyl 4-(7-(4-(piperazin-1-yl)phenyl)-3-(quinolin-4-yl)imidazo[1,2-b]pyridazine-6-carbonyl)piperazine-1-carboxylate] | 7.00 to 8.30 | –
NC(=O)c1nn2c(-c3ccnc4ccccc34)cnc2cc1-c1ccc(N2CCNCC2)cc1 [Example 5, 7-(4-(Piperazin-1-yl)phenyl)-3-(quinolin-4-yl)imidazo[1,2-b]pyridazine-6-carboxamide] | 7.00 to 8.30 | –
N#Cc1nn2c(-c3ccnc4ccccc34)cnc2cc1-c1ccc(N2CCNCC2)cc1 [Example 6, 7-(4-(piperazin-1-yl)phenyl)-3-(quinolin-4-yl)imidazo[1,2-b]pyridazine-6-carbonitrile] | > 9.00 | –
OCc1nn2c(-c3ccnc4ccccc34)cnc2cc1-c1ccc(N2CCNCC2)cc1 [Example 7, (7-(4-(Piperazin-1-yl)phenyl)-3-(quinolin-4-yl)imidazo[1,2-b]pyridazin-6-yl)methanol] | > 9.00 | –
COCc1nn2c(-c3ccnc4ccccc34)cnc2cc1-c1ccc(N2CCNCC2)cc1 [Example 8, 4-(6-(Methoxymethyl)-7-(4-(piperazin-1-yl)phenyl)imidazo[1,2-b]pyridazin-3-yl)quinoline] | – | 8.30 to 9.00
Cc1nn2c(-c3ccnc4cc(-c5ccncc5)ccc34)cnc2cc1-c1cnn([C@H]2CC[C@H](O)CC2)c1 [Example 10, (trans)-4-(4-(6-Methyl-3-(7-(pyridin-4-yl)quinolin-4-yl)imidazo[1,2-b]pyridazin-7-yl)-1H-pyrazol-1-yl)cyclohexan-1-ol] | 8.30 to 9.00 | –
Cc1nn2c(-c3ccnc4cc(-c5ccncc5)ccc34)cnc2cc1-c1ccc(N2CCN(CCO)CC2)cc1 [Example 11, 2-(4-(4-(6-Methyl-3-(7-(pyridin-4-yl)quinolin-4-yl)imidazo[1,2-b]pyridazin-7-yl)phenyl)piperazin-1-yl)ethan-1-ol] | > 9.00 | –
Cc1nn2c(-c3ccnc4cc(-c5ccncc5)ccc34)cnc2cc1-c1ccc(N2CCN(C)CC2=O)cc1 [Example 12, 4-Methyl-1-(4-(6-methyl-3-(7-(pyridin-4-yl)quinolin-4-yl)imidazo[1,2-b]pyridazin-7-yl)phenyl)piperazin-2-one] | 7.00 to 8.30 | –
Cc1nn2c(-c3ccnc4cc(-c5ccncc5)ccc34)cnc2cc1-c1cccc(N2CCN(C)CC2)c1 [Example 13, 4-(6-Methyl-7-(3-(4-methylpiperazin-1-yl)phenyl)imidazo[1,2-b]pyridazin-3-yl)-7-(pyridin-4-yl)quinolone] | 7.00 to 8.30 | –
Cc1nn2c(-c3ccnc4cc(-c5ccncc5)ccc34)cnc2cc1-c1ccc(C(=O)N2CCN(C)CC2)cc1 [Example 14, (4-(6-Methyl-3-(7-(pyridin-4-yl)quinolin-4-yl)imidazo[1,2-b]pyridazin-7-yl)phenyl)(4-methylpiperazin-1-yl)methanone] | 8.30 to 9.00 | –
Cc1nn2c(-c3ccnc4cc(-c5ccncc5)ccc34)cnc2cc1-c1ccc(CN2CCC[C@H]2C)c(F)c1 [Example 15, (R)-4-(7-(3-fluoro-4-((2-methylpyrrolidin-1-yl)methyl)phenyl)-6-methylimidazo[1,2-b]pyridazin-3-yl)-7-(pyridin-4-yl)quinoline] | 8.30 to 9.00 | –
